Among the data in US20160083380A1, “OXIMINO DERIVATIVES FOR THE TREATMENT OF DYSLIPIDEMIA” (CADILA HEALTHCARE LIMITED, priority 2013, published 2016) are change in vivo values, retold here.

Like-named read-outs stand apart in the source and are kept apart here.

The subject of this assay is high fat diet C57 mice. Put plainly: LDL-C lowering activity in high fat diet C57 mice. It counts as in vivo. To be noted: Mus musculus, po, 672 h, C57 mice on high fat diet, orally once a day, dose 30 mg (30 mpk), blood collected on day 28 of treatment. The procedure: LDL-C Lowering Activity—in High Fat Diet C57 Mice
The in-vivo LDL-c lowering for test compound was tested in C57 mice which were kept on high fat diet for 4 weeks and the blood was collected by retro-orbital sinus puncture method under light ether anesthesia on day 0 (pretreatment). Animal are grouped based on LDL-c levels, after that 4-6 week treatment with vehicle or test compound orally at a dose of 30 mpk dose once a day was given. On completion of treatment on day 28 of the treatment the blood was collected for LDL-c and TC levels measurement. The percent change in LDL-c and TC in test compound group Vs Vehicle group was calculated.

The mark [1] stands for this setting: read-out: % Change Vs Vehicle Control LDL-c.
Setting [2] is: read-out: % Change Vs Vehicle Control TC.

In the case of `COc1cc(CO/N=C(\C)c2ccc(OCc3nnn[nH]3)cc2)ccc1C(F)(F)F` [Example 25, 1-(4-((1H-tetrazol-5-yl)methoxy)phenyl)ethanone O-(3-methoxy-4-(trifluoromethyl)benzyl)oxime], the change in vivo at 30 mg/kg runs as follows: under setting [1], -54 ± 3%; under setting [2], -21 ± 2%.
For `C/C(=N\OCc1ccc(C(F)(F)F)cc1)c1ccc(OCc2nnnn2C)cc1` [Example 3, 1-(4-((1-Methyl-H-tetrazol-5-yl)methoxy)phenyl)ethanone O-(4-(trifluoromethyl)benzyl)oxime], in that order: -5 ± 8% and -1 ± 3%.
As for `C/C(=N\OCc1ccc(C(F)(F)F)cc1)c1ccc(OCc2nnc(C)[nH]2)nc1` [Example 18, 1-(6-((5-Methyl-4H-1,2,4-triazol-3-yl)methoxy)pyridin-3-yl)ethanone O-(4-(trifluoromethyl)benzyl)oxime], the change in vivo at 30 mg/kg is -23 ± 6% under setting [1] and -11 ± 3% under setting [2].
For `CCn1nnc(COc2ccc(/C(C)=N/OCc3ccc(C(F)(F)F)cc3)cc2)n1` [Example 41, 1-(4-((2-Ethyl-2H-tetrazol-5-yl)methoxy)phenyl)ethanone O-(4-(trifluoromethyl)benzyl)oxime], in that order: -36 ± 6% and -11 ± 5%.
For `C/C(=N\OCc1ccc(C(F)(F)F)cc1)c1ccc(OCc2nnn(C(C)C)n2)nc1` [Example 48, 1-(6-((2-isoPropyl-2H-tetrazol-5-yl)methoxy)pyridin-3-yl)ethanone O-(4-(trifluoromethyl)benzyl)oxime], the change in vivo at 30 mg/kg under setting [1] was -47 ± 7% and the change in vivo at 30 mg/kg under setting [2] was -17 ± 3%.
For `C/C(=N\OCc1ccc(F)cc1)c1ccc(OCc2nnn[nH]2)cc1` [Example 31, 1-(4-((1H-tetrazol-5-yl)methoxy)phenyl)ethanone O-(4-fluorobenzyl)oxime], in that order: -26 ± 10% and -7 ± 4%.
Regarding `C/C(=N\OCc1ccc(C(F)(F)F)cc1)c1ccc(OCc2nnn[nH]2)cc1O` [Example 27, 1-(4-((1H-tetrazol-5-yl)methoxy)-2-hydroxyphenyl) ethanone O-(4-(trifluoromethyl)benzyl)oxime], the change in vivo at 30 mg/kg by setting is: under setting [1], -50 ± 5%; under setting [2], -25 ± 3%.
Consider `CCn1nnc(COc2ccc(/C(C)=N/OCc3ccc(C(C)(F)F)cc3)cn2)n1` [Example 44, 1-(6-((2-Ethyl-2H-tetrazol-5-yl)methoxy)pyridin-3-yl)ethanone O-(4-(1,1-difluoroethyl)benzyl)oxime], for which the change in vivo at 30 mg/kg runs as follows: under setting [1], -50 ± 5%; under setting [2], -17 ± 3%.
For `C/C(=N\OCc1ccc(C(F)(F)F)cc1)c1ccc(OCc2nnn[nH]2)nc1Cl` [Example 36, 1-(6-((1H-tetrazol-5-yl)methoxy)-2-chloropyridin-3-yl)ethanone O-(4-(trifluoromethyl)benzyl)oxime], in that order: -39 ± 5% and -12 ± 3%.
For `C/C(=N\OCc1ccc(C(F)(F)F)cc1)c1ccc(OCc2nnn[nH]2)cc1` [Example 1, 1-(4-((1H-tetrazol-5-yl)methoxy)phenyl)ethanone O-(4-(trifluoromethyl)benzyl)oxime], in that order: -50 ± 4% and -24 ± 4%.
For `C/C(=N\OCc1ccc(C(F)(F)F)cc1)c1ccc(OCc2cnn[nH]2)cc1` [Example 6, 1-(4-((1H-1,2,3-triazol-5-yl)methoxy)phenyl)ethanone O-(4-(trifluoromethyl)benzyl)oxime], in that order: -30 ± 5% and -11 ± 2%.
Take `C/C(=N\OCc1ccc(C(F)(F)F)cc1)c1ccc(OCc2nnc(N)o2)cc1` [Example 20, 1-(4-((5-Amino-1,3,4-oxadiazol-2-yl)methoxy)phenyl)ethanone O-(4-(trifluoromethyl)benzyl)oxime]: the change in vivo at 30 mg/kg was -29 ± 5% under setting [1] and -13 ± 2% under setting [2].
As for `CC(=NOCc1ccc(C(F)(F)F)cc1)c1ccc(OCc2nnn[nH]2)nc1` [Example 4, 1-(6-((1H-tetrazol-5-yl)methoxy)pyridin-3-yl)ethanone O-(4-(trifluoromethyl)benzyl)oxime], the change in vivo at 30 mg/kg is -66 ± 2% under setting [1] and -41 ± 4% under setting [2].
For `C/C(=N\OCc1ccc(C(C)(F)F)cc1)c1ccc(OCc2nnn[nH]2)cc1` [Example 22, 1-(4-((1H-tetrazol-5-yl)methoxy)phenyl)ethanone O-(4-(1,1-difluoroethyl)benzyl)oxime], in that order: -61 ± 3% and -30 ± 3%.
As for `C/C(=N\OCc1ccc(C(C)(F)F)cc1)c1ccc(OCc2nnn[nH]2)nc1` [Example 43, 1-(6-((1H-tetrazol-5-yl)methoxy)pyridin-3-yl) ethanone O-(4-(1,1-difluoroethyl)benzyl)oxime], the change in vivo at 30 mg/kg was -67 ± 1% under setting [1] and -38 ± 2% under setting [2].
For `C/C(=N\OCc1ccc(C(F)(F)F)cc1)c1ccc(OCc2nnn(C)n2)cc1` [Example 2, 1-(4-((2-Methyl-2H-tetrazol-5-yl)methoxy)phenyl)ethanone O-(4-(trifluoromethyl)benzyl)oxime], in that order: -29 ± 6% and -14 ± 3%.
For `C/C(=N\OCc1ccc(C(F)(F)F)cc1)c1ccc(OCc2nnnn2C)cc1O` [Example 29, 1-(2-Hydroxy-4-((1-methyl-1H-tetrazol-5-yl)methoxy)phenyl)ethanone O-(4-(trifluoromethyl)benzyl)oxime], in that order: -14 ± 6% and -5 ± 3%.
For `CCn1nnnc1COc1ccc(/C(C)=N/OCc2ccc(C(F)(F)F)cc2)cc1` [Example 42, 1-(4-((1-Ethyl-2H-tetrazol-5-yl)methoxy)phenyl)ethanone O-(4-(trifluoromethyl)benzyl)oxime], in that order: -22 ± 9% and 1 ± 6%.
With `C/C(=N\OCc1ccc(C(F)(F)F)cc1)c1ccc(OCc2nnnn2CC(=O)O)nc1` [Example 56, 2-(5-(((5-(1-(((4-(Trifluoromethyl)benzyl)oxy)imino)ethyl)pyridin-2-yl)oxy)methyl)-1H-tetrazol-1-yl)acetic acid], the change in vivo at 30 mg/kg runs as follows: under setting [1], -22 ± 5%; under setting [2], -16 ± 4%.
For `CCn1nnc(COc2ccc(/C(C)=N/OCc3ccc(C(F)(F)F)cc3)cn2)n1` [Example 46, 1-(6-((2-Ethyl-2H-tetrazol-5-yl)methoxy)pyridin-3-yl)ethanone O-(4-(trifluoromethyl)benzyl)oxime], in that order: -41 ± 4% and -20 ± 2%.
For `C/C(=N\OCc1ccc(C(C)(F)F)cc1)c1ccc(OCc2nnn(CC3CC3)n2)nc1` [Example 60, 1-(6-((2-(Cyclopropylmethyl)-2H-tetrazol-5-yl)methoxy)pyridin-3-yl)ethanone O-(4-(1,1-difluoroethyl)benzyl)oxime], in that order: -49 ± 3% and -17 ± 3%.
Consider `C/C(=N\OCc1ccc(C(F)(F)F)cc1)c1ccc(OCc2nnc(C)o2)cc1` [Example 7, 1-(4-((5-Methyl-1,3,4-oxadiazol-2-yl)methoxy)phenyl)ethanone O-(4-(trifluoromethyl)benzyl)oxime], for which the change in vivo at 30 mg/kg reads like this: under setting [1], -34 ± 7%; under setting [2], -10 ± 7%.
On to `C/C(=N\OCc1ccc(C(C)(F)F)cc1)c1ccc(OCc2nnn(C(C)C)n2)nc1` [Example 58, 1-(6-((2-isoPropyl-2H-tetrazol-5-yl)methoxy)pyridin-3-yl)ethanone O-(4-(1,1-difluoroethyl)benzyl)oxime], for which the change in vivo at 30 mg/kg is -36 ± 6% under setting [1] and -7 ± 2% under setting [2].
For `C/C(=N\OCc1ccc(C(F)(F)F)cc1)c1ccc(OCc2nnn(CC3CC3)n2)nc1` [Example 50, 1-(6-((2-(Cyclopropylmethyl)-2H-tetrazol-5-yl)methoxy)pyridin-3-yl)ethanone O-(4-(trifluoromethyl)benzyl)oxime], in that order: -47 ± 4% and -18 ± 3%.
Turning to `C/C(=N\OCc1ccc(C(F)(F)F)cc1)c1ccc(OCc2nnn(CC3CCCCC3)n2)nc1` [Example 52, 1-(6-((2-(Cyclohexylmethyl)-2H-tetrazol-5-yl)methoxy)pyridin-3-yl)ethanone O-(4-(trifluoromethyl)benzyl)oxime], the change in vivo at 30 mg/kg reads like this: under setting [1], -18 ± 11%; under setting [2], -2 ± 5%.
